From patent publication US12590062B2, “PD-1/PD-L1 inhibitors” (Gilead Sciences, Inc., priority 2017, dated 2026)

Assays:
[1] = molecular target: PD-1/PD-L1 (Homo sapiens, UniProt Q9NZQ7); assay: PD-1/PD-L1 biochemical protein-protein interaction assay (ALPHA); assay type: binding; settings: 0.3 nM His tagged PD-L1, 2.5 nM biotinylated Fc-PD-1, 60 minutes at 25° C., read-out: IC50 PD-L1-PD-1 Alpha IC50-mono PD-L1-fcP-D1
How it was run: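 Compound blockade of the PD-1/PD-L1 extracellular-domain interaction measured as reduced ALPHA signal after 60 min at 25 °C, pH 7.4 Hepes buffer with EDTA, Tween 20 and BSA. Final proteins: His-tagged PD-L1 0.3 nM, biotinylated Fc-PD-1 2.5 nM; four-parameter curve fit gives IC50.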

[2] = molecular target: T1, PD-1/PD-L1 interaction (Homo sapiens, UniProt Q9NZQ7); assay: PD-1/PD-L1 NFAT reporter co-culture assay; assay type: cell-based; settings: Jurkat PD-1 NFAT-luciferase cells co-cultured with aAPC-PD-L1 CHO cells, 6 hrs at 37° C.; read-out: EC50 NFAT Luciferase
T1 construct: expressed in transfected cells; host or cells: CHO cells (aAPC-PD-L1) co-cultured with Jurkat cells overexpressing PD-1 and an NFAT-luciferase reporter
T1 sequence (Q9NZQ7 19-290): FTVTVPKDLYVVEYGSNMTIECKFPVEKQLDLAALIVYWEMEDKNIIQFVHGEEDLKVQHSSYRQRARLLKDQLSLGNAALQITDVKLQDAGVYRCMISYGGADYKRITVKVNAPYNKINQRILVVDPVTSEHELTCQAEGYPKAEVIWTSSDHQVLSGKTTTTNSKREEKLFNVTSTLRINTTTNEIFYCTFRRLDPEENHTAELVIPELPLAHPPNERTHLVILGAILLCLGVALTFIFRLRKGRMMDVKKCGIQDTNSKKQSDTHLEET
How it was run: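 Luminescence (ONE-Glo) after 6 h, 37 °C co-culture reports NFAT-luciferase in PD-1 Jurkat cells, which PD-1/PD-L1 engagement suppresses. Partner cells: CHO expressing anti-CD3 and PD-L1. EC50 from four-parameter dose-response fit.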

Chain of PD-1/PD-L1 (Q9NZQ7 19-238 limits assumed): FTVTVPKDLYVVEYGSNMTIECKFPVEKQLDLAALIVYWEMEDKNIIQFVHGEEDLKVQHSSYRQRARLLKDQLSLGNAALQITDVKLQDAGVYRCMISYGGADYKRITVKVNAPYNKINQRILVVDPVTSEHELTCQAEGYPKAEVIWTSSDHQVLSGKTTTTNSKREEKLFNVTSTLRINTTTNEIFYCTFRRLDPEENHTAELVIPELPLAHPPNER

Row | SMILES | IC50 [1] [nM] | EC50 [2] [nM]
1 | Cc1c(COc2cc(OCc3cncc(C#N)c3)c(CNC[C@@H](O)CO)cc2Br)cccc1-c1cccc(COc2cc(OCc3cncc(C#N)c3)c(CNC[C@@H](O)CO)cc2Br)c1C [Example 257, 5,5′-((((((2,2′-dimethyl-[1,1′-biphenyl]-3,3′-diyl)bis(methylene))bis(oxy))bis(4-bromo-6-((((R)-2,3-dihydroxypropyl)amino)methyl)-3,1-phenylene))bis(oxy))bis(methylene))dinicotinonitrile] | 24 | 657
2 | Cc1c(COc2cc(OCc3cncc(C#N)c3)c(CN(C)C)cc2Cl)cccc1-c1cccc(-c2ccc(CN(C)C)s2)c1C [Example 366, 5-((4-chloro-2-((dimethylamino)methyl)-5-((3′-(5-((dimethylamino)methyl)thiophen-2-yl)-2,2′-dimethyl-[1,1′-biphenyl]-3-yl)methoxy)phenoxy)methyl)nicotinonitrile] | 2.33 | 2840
3 | Cc1c(COc2ccc(CNC[C@@H](O)CC(=O)O)cc2C(F)(F)F)cccc1-c1cccc(COc2ccc(CNC[C@@H](O)CC(=O)O)cc2C(F)(F)F)c1C [Example 224, (3S,3′S)-4,4′-((((((2,2′-dimethyl-[1,1′-biphenyl]-3,3′-diyl)bis(methylene))bis(oxy))bis(3-(trifluoromethyl)-4,1-phenylene))bis(methylene))bis(azanediyl))bis(3-hydroxybutanoic acid)] | 1.8 | 24900
4 | COc1nc(OCc2cccc(-c3cccc(COc4nc(OC)c(CN5CC[C@H]5C(=O)O)cc4Br)c3C)c2C)ccc1CN1CC[C@H]1C(=O)O [Example 60, (S)-1-((6-((3′-(((3-bromo-5-(((S)-2-carboxyazetidin-1-yl)methyl)-6-methoxypyridin-2-yl)oxy)methyl)-2,2′-dimethyl-[1,1′-biphenyl]-3-yl)methoxy)-2-methoxypyridin-3-yl)methyl)azetidine-2-carboxylic acid] | 2.3 | ≥ 50000
5 | COc1nc(OCc2cccc(-c3cccc(COc4nc(OC)c(CNC[C@@H](O)CC(=O)O)cc4S(C)(=O)=O)c3C)c2C)c(S(C)(=O)=O)cc1CNC[C@@H](O)CC(=O)O [Example 263, (3S,3′S)-4,4′-((((((2,2′-dimethyl-[1,1′-biphenyl]-3,3′-diyl)bis(methylene))bis(oxy))bis(2-methoxy-5-(methylsulfonyl)pyridine-6,3-diyl))bis(methylene))bis(azanediyl))bis(3-hydroxybutanoic acid)] | 1.8 | 36400
6 | Cc1c(COc2ccc(CNC[C@@H](O)CC(=O)O)c(OCCN3CCOCC3)n2)cccc1-c1cccc(COc2ccc(CNC[C@@H](O)CC(=O)O)c(OCCN3CCOCC3)n2)c1C [Example 158, (3S,3′S)-4,4′-((((((2,2′-dimethyl-[1,1′-biphenyl]-3,3′-diyl)bis(methylene))bis(oxy))bis(2-(2-morpholinoethoxy)pyridine-6,3-diyl))bis(methylene))bis(azanediyl))bis(3-hydroxybutanoic acid)] | 2 | 28100
7 | Cc1c(COc2cc(OCc3cncc(C#N)c3)c(CNCCO)cc2Cl)cccc1-c1cccc(COc2ccc(CNCCO)cc2C(F)(F)F)c1C [Example 204, 5-((4-Chloro-2-(((2-hydroxyethyl)amino)methyl)-5-((3′-((4-(((2-hydroxyethyl)amino)methyl)-2-(trifluoromethyl)phenoxy)methyl)-2,2′-dimethyl-[1,1′-biphenyl]-3-yl)methoxy)phenoxy)methyl)nicotinonitrile] | 25.7 | 927
8 | COc1nc(OCc2cccc(-c3cccc(COc4ccc(CN5C[C@@H](O)CC5=O)c(OC)n4)c3C)c2C)ccc1CNC[C@@H](O)CC(=O)O [Example 26, (S)-3-hydroxy-4-(((6-((3′-(((5-(((S)-4-hydroxy-2-oxopyrrolidin-1-yl)methyl)-6-methoxypyridin-2-yl)oxy)methyl)-2,2′-dimethyl-[1,1′-biphenyl]-3-y)methoxy)-2-methoxypyridin-3-yl)methyl)amino)butanoic acid] | 16.2 | 18900
9 | Cc1c(COc2cc(OCc3nc4ccccc4[nH]3)c(CNC[C@@H](O)CC(=O)O)cc2Cl)cccc1-c1cccc(COc2cc(OCc3nc4ccccc4[nH]3)c(CNC[C@@H](O)CC(=O)O)cc2Cl)c1C [Example 273, (3S,3′S)-4,4′-((((((2,2′-dimethyl-[1,1′-biphenyl]-3,3′-diyl)bis(methylene))bis(oxy))bis(2-((1H-benzo[d]imidazol-2-yl)methoxy)-5-chloro-4,1-phenylene))bis(methylene))bis(azanediyl))bis(3-hydroxybutanoic acid)] | 200 | ≥ 50000

Molecules with a lower IC50 [1], results first:

Row | IC50 [1] [nM] | EC50 [2] [nM] | SMILES
10 | 1.3 | 2220 | Cc1c(COc2cc(OCc3cncc(C#N)c3)c(CNC[C@@H](O)CC(=O)O)cc2Cl)cccc1-c1cccc(-c2ccc(N3CCNCC3)cc2)c1C [Example 339, (S)-4-((5-chloro-2-((5-cyanopyridin-3-yl)methoxy)-4-((2,2′-dimethyl-4″-(piperazin-1-yl)-[1,1′:3′,1″-terphenyl]-3-yl)methoxy)benzyl)amino)-3-hydroxybutanoic acid]
11 | 0.287 | 1920 | Cc1c(COc2cc(OCc3cncc(C#N)c3)c(CNC[C@@H](O)CC(=O)O)cc2Cl)cccc1-c1cccc(-c2ccc3ncnc(NCCO)c3c2)c1C [Example 337, (S)-4-((5-chloro-2-((5-cyanopyridin-3-yl)methoxy)-4-((3′-(4-((2-hydroxyethyl)amino)quinazolin-6-yl)-2,2′-dimethyl-[1,1′-biphenyl]-3-yl)methoxy)benzyl)amino)-3-hydroxybutanoic acid]
12 | 0.148 | 712 | COc1cc(OCc2cccc(-c3cccc(COc4cc(OCc5cncc(C#N)c5)c(CNC[C@@H](O)CC(=O)O)cc4Cl)c3C)c2C)c(Cl)cc1CNCC(=O)NS(C)(=O)=O [Example 355, (S)-4-((5-chloro-4-((3′-((2-chloro-5-methoxy-4-(((2-(methylsulfonamido)-2-oxoethyl)amino)methyl)phenoxy)methyl)-2,2′-dimethyl-[1,1′-biphenyl]-3-yl)methoxy)-2-((5-cyanopyridin-3-yl)methoxy)benzyl)amino)-3-hydroxybutanoic acid]
13 | 1.4 | 10600 | Cc1c(COc2cc(OCc3cncc(C#N)c3)c(CNC[C@@H](O)CC(=O)O)cc2Cl)cccc1-c1cncc(COc2cc(OCc3cncc(C#N)c3)c(CNC[C@@H](O)CC(=O)O)cc2Cl)c1 [Example 208, (S)-4-((4-((5-(3-((4-((((S)-3-Carboxy-2-hydroxypropyl)amino)methyl)-2-chloro-5-((5-cyanopyridin-3-yl)methoxy)phenoxy)methyl)-2-methylphenyl)pyridin-3-yl)methoxy)-5-chloro-2-((5-cyanopyridin-3-yl)methoxy)benzyl)amino)-3-hydroxybutanoic acid]
14 | 0.8 | 20900 | Cc1c(COc2ccc(CNC[C@@H](O)CC(=O)O)cc2Cl)cccc1-c1cccc(COc2ccc(CNC[C@@H](O)CC(=O)O)cc2Cl)c1C [Example 283, (3S,3′S)-4,4′-((((((2,2′-dimethyl-[1,1′-biphenyl]-3,3′-diyl)bis(methylene))bis(oxy))bis(3-chloro-4,1-phenylene))bis(methylene))bis(azanediyl))bis(3-hydroxybutanoic acid)]
